Measurements taken from US7138361B2, “Herbicidal heterocycles” (E. I. du Pont de Nemours and Company, priority 2000, dated 2006).

Legend:
Assay type in all cases: in vivo
[1] = tested on: pigweed (Amaranthus retroflexus); experiment: Test B postemergence
Procedure, shortened: (§1)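 Seeds were planted and sprayed preemergence with test chemical in a non-phytotoxic solvent mixture containing surfactant; postemergence plants (2 to 18 cm, 1- to 4-leaf stage) received the same formulation. Greenhouse hold 13 to 15 days, then visual rating versus untreated controls on a 0–100 scale (0 no effect, 100 complete control).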

[2] = tested on: lambsquarters (Chenopodium album); experiment: Test B postemergence
Procedure, shortened: as §1

[3] = tested on: velvetleaf (Abutilon theophrasti); experiment: Test B postemergence
Procedure, shortened: as §1

[4] = tested on: corn (Zea mays); experiment: Test B postemergence
Procedure, shortened: as §1

[5] = tested on: crabgrass (Digitaria sanguinalis); experiment: Test B postemergence
Procedure, shortened: as §1

[6] = tested on: cocklebur (Xanthium strumarium); experiment: Test B postemergence
Procedure, shortened: as §1

[7] = tested on: morning glory (Ipomoea hederacea); experiment: Test B postemergence
Procedure, shortened: as §1

[8] = tested on: wheat (Triticum aestivum); experiment: Test B postemergence
Procedure, shortened: as §1

[9] = tested on: giant foxtail (Setaria faberii); experiment: Test B postemergence
Procedure, shortened: as §1

[10] = tested on: wild oat (Avena fatua); experiment: Test B postemergence
Procedure, shortened: as §1

[11] = tested on: blackgrass (Alopecurus myosuroides); experiment: Test B postemergence
Procedure, shortened: as §1

[12] = tested on: Surinam grass (Brachiaria decumbens); experiment: Test B postemergence
Procedure, shortened: as §1

[13] = tested on: barnyardgrass (Echinochloa crus-galli); experiment: Test B postemergence
Procedure, shortened: as §1

[14] = tested on: pigweed (Amaranthus retroflexus); experiment: Test B preemergence
Procedure, shortened: as §1

[15] = tested on: lambsquarters (Chenopodium album); experiment: Test B preemergence
Procedure, shortened: as §1

[16] = tested on: velvetleaf (Abutilon theophrasti); experiment: Test B preemergence
Procedure, shortened: as §1

[17] = tested on: rice (Oryza saliva); experiment: Test B preemergence
Procedure, shortened: as §1

[18] = tested on: corn (Zea mays); experiment: Test B preemergence
Procedure, shortened: as §1

[19] = tested on: crabgrass (Digitaria sanguinalis); experiment: Test B preemergence
Procedure, shortened: as §1

[20] = tested on: cocklebur (Xanthium strumarium); experiment: Test B preemergence
Procedure, shortened: as §1

[21] = tested on: morning glory (Ipomoea hederacea); experiment: Test B preemergence
Procedure, shortened: as §1

[22] = tested on: giant foxtail (Setaria faberii); experiment: Test B preemergence
Procedure, shortened: as §1

[23] = tested on: Surinam grass (Brachiaria decumbens); experiment: Test B preemergence
Procedure, shortened: as §1

[24] = tested on: barnyardgrass (Echinochloa crus-galli); experiment: Test B preemergence
Procedure, shortened: as §1

[25] = tested on: smallflower flatsedge (Cyperus difformis); experiment: Test C flooded paddy test; settings: for Flatsedge plant response rating: Flooded Paddy, scale 0 to 100, 0 no effect, 100 complete control; for Plant response rating, Flatsedge: flooded paddy test, scale 0 to 100 (0 no effect, 100 complete control)
Procedure, shortened: (§2)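 2-leaf-stage plants, flooded paddy; treated; greenhouse 12–14 days; compared with controls by eye; rated 0–100 (0 none, 100 complete control).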

[26] = tested on: rice (Oryza saliva); experiment: Test C flooded paddy test; settings: for Rice plant response rating: Flooded Paddy, scale 0 to 100, 0 no effect, 100 complete control; for Plant response rating, Rice: flooded paddy test, scale 0 to 100 (0 no effect, 100 complete control)
Procedure, shortened: as §2

[27] = tested on: duck salad (Heteranthera limosa); experiment: Test C flooded paddy test; settings: for Ducksalad plant response rating: Flooded Paddy, scale 0 to 100, 0 no effect, 100 complete control; for Plant response rating, Ducksalad: flooded paddy test, scale 0 to 100 (0 no effect, 100 complete control)
Procedure, shortened: as §2

[28] = tested on: barnyardgrass (Echinochloa crus-galli); experiment: Test C flooded paddy test; settings: for Barnyardgrass plant response rating: Flooded Paddy, scale 0 to 100, 0 no effect, 100 complete control; for Plant response rating, Barnyardgrass: flooded paddy test, scale 0 to 100 (0 no effect, 100 complete control)
Procedure, shortened: as §2

[29] = Rate 125 g/ha, scale 0 to 100, 0 no effect, 100 complete control
[30] = Rate 500 g/ha, scale 0 to 100, 0 is no effect, 100 is complete control, 13 to 15 days
[31] = Preemergence, Rate 500 g/ha, scale 0 to 100, 0 no effect, 100 complete control
[32] = preemergence, Rate 125 g/ha, scale of 0 to 100 where 0 is no effect and 100 is complete control, 13 to 15 days

Question: Which results are given for `CCCCC(CCCC)c1ccn(C2SCN(c3cccc(OC(F)(F)F)c3)C2=O)n1` (stereo not shown) [Compound 115]?
Answer: Plant response rating, Pigweed [1, 29]: 50; Plant response rating, Pigweed [1, 30]: 60; Plant response rating, Lambsquarters [2, 29]: 0; Plant response rating, Lambsquarters [2, 30]: 0; Plant response rating, Velvetleaf [3, 29]: 0; Plant response rating, Velvetleaf [3, 30]: 0; Plant response rating, Corn [4, 29]: 20; Plant response rating, Corn [4, 30]: 20; Plant response rating, Crabgrass [5, 29]: 20; Plant response rating, Crabgrass [5, 30]: 30; Plant response rating, Cocklebur [6, 29]: 20; Plant response rating, Cocklebur [6, 30]: 70; Plant response rating, Morningglory [7, 29]: 0; Plant response rating, Morningglory [7, 30]: 0; Plant response rating, Wheat [8, 29]: 40; Plant response rating, Wheat [8, 30]: 50; Plant response rating, Foxtail, Giant [9, 29]: 0; Plant response rating, Foxtail, Giant [9, 30]: 0; Plant response rating, Wild Oat [10, 29]: 30; Plant response rating, Wild Oat [10, 30]: 60; Plant response rating, Blackgrass [11, 29]: 0; Plant response rating, Blackgrass [11, 30]: 0; Plant response rating, Surinam grass [12, 29]: 20; Plant response rating, Surinam grass [12, 30]: 100; Plant response rating, Barnyardgrass [13, 29]: 0; Plant response rating, Barnyardgrass [13, 30]: 0; Plant response rating, Pigweed [14, 31]: 0; Plant response rating, Pigweed [14, 32]: 0; Plant response rating, Lambsquarters [15, 31]: 0; Plant response rating, Lambsquarters [15, 32]: 0; Plant response rating, Velvetleaf [16, 31]: 0; Plant response rating, Velvetleaf [16, 32]: 0; Plant response rating, Rice [17, 31]: 0; Plant response rating, Rice [17, 32]: 0; Plant response rating, Corn [18, 31]: 0; Plant response rating, Corn [18, 32]: 0; Plant response rating, Crabgrass [19, 31]: 0; Plant response rating, Crabgrass [19, 32]: 0; Plant response rating, Cocklebur [20, 31]: 0; Plant response rating, Cocklebur [20, 32]: 0; Plant response rating, Morningglory [21, 31]: 0; Plant response rating, Morningglory [21, 32]: 0; Plant response rating, Foxtail, Giant [22, 31]: 0; Plant response rating, Foxtail, Giant [22, 32]: 0; Plant response rating, Surinam grass [23, 31]: 0; Plant response rating, Surinam grass [23, 32]: 0; Plant response rating, Barnyardgrass [24, 31]: 0; Plant response rating, Barnyardgrass [24, 32]: 0; Flatsedge plant response rating ([25]; Rate 250 g/ha): 0; Flatsedge plant response rating ([25]; Rate 500 g/ha): 0; Plant response rating, Flatsedge ([25]; Rate 62 g/ha): 0; Plant response rating, Flatsedge ([25]; Rate 125 g/ha): 0; Rice plant response rating ([26]; Rate 250 g/ha): 0; Rice plant response rating ([26]; Rate 500 g/ha): 0; Plant response rating, Rice ([26]; Rate 62 g/ha): 0; Plant response rating, Rice ([26]; Rate 125 g/ha): 0; Ducksalad plant response rating ([27]; Rate 250 g/ha): 0; Ducksalad plant response rating ([27]; Rate 500 g/ha): 0; Plant response rating, Ducksalad ([27]; Rate 62 g/ha): 0; Plant response rating, Ducksalad ([27]; Rate 125 g/ha): 0; Barnyardgrass plant response rating ([28]; Rate 250 g/ha): 0; Barnyardgrass plant response rating ([28]; Rate 500 g/ha): 0; Plant response rating, Barnyardgrass ([28]; Rate 62 g/ha): 0; Plant response rating, Barnyardgrass ([28]; Rate 125 g/ha): 0
